Experiments:
[1] = Serious adverse reactions, Phase 2 Acebilustat safety population; type: in vivo, human; conditions: Phase 2, N = 217
Source text: SARs reported in the completed Phase 2 studies and suspected to be potentially related to drug treatment are tabulated below.

[2] = tested on: sputum white blood cells and neutrophils; assay: Sputum cell counts in CF patients; type: in vivo, human
[3] = Clinical safety and tolerability
[4] = Long-term animal safety studies; type: in vivo, animals
[5] = tested on: LTB4 production in human whole blood; assay: LTB4 production in ex vivo stimulated human whole blood; type: cell-based
Source text: The IC50 of LTA4H epoxide hydrolase activity can be measured using methods known in the art, for example, using the LTA4 hydrolase homogenous time resolved fluorescence assay which is described, for example, in U.S. Pat. Nos. 7,737,145 and 10,202,362; the contents of which are expressly incorporated by reference herein. The hydrolase-homogeneous time resolved fluorescence assay is a two-step assay that measures the hydrolysis of LTA4 to LTB4 by analyzing the amount of LTB4 produced. The first step involves the enzymatic conversion of LTA4 to LTB4 and the second step involves the quantification of the LTB4 formed with a homogeneous time resolved fluorescence assay. LTA4H epoxide hydrolase activity can also be measured in a whole blood assay, for example, using human whole blood, using the method described in Penning, T. D. et al., J. Med. Chem. (2000), 43 (4): 721-735 and U.S. Pat. No. 7,737,145; the contents of each of which are expressly incorporated by reference herein. In the whole blood assay, the inhibitor compounds are tested for their ability to inhibit LTB4 release upon stimulation with calcium ionophore and the LTB4 levels in supernatants are measured by ELISA. LTA4H epoxide hydrolase activity can also be measured according to the method described in Low et al. (2017). […]

LTA4H aminopeptidase = LTA4H aminopeptidase (Homo sapiens (Human), UniProt P09960); conditions: Bhatt et al. (2017); read-out: LTA4H aminopeptidase potency; cited from earlier work
Sequence of LTA4H aminopeptidase (P09960 whole entry): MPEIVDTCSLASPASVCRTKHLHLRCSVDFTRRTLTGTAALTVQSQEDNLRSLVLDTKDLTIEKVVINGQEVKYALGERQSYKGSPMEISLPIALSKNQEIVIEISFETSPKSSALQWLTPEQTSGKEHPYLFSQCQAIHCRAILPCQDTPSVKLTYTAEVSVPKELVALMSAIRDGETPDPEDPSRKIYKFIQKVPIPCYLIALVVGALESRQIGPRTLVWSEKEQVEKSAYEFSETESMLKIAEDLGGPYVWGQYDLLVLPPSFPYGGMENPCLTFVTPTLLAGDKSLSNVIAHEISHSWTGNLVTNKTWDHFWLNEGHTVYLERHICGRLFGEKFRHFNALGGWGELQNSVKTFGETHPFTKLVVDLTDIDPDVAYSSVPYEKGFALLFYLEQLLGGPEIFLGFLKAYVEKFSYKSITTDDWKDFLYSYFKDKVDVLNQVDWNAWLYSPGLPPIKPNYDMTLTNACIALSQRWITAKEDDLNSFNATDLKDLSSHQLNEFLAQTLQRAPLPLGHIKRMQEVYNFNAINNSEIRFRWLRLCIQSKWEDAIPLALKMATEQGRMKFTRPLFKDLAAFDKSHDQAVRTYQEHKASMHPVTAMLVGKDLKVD

LTA4H epoxide hydrolase = LTA4H epoxide hydrolase (Homo sapiens (Human), UniProt P09960); assay: LTA4H epoxide hydrolase enzymatic activity (LTB4 production) in vitro; type: biochemical; conditions: read-out: IC50, LTA4H-mediated production of LTB4
Sequence of LTA4H epoxide hydrolase (P09960 whole entry): as above
Procedure: The hydrolase-homogeneous time resolved fluorescence assay is a two-step assay that measures the hydrolysis of LTA4 to LTB4 by analyzing the amount of LTB4 produced. The first step involves the enzymatic conversion of LTA4 to LTB4 and the second step involves the quantification of the LTB4 formed with a homogeneous time resolved fluorescence assay. […] In the whole blood assay, the inhibitor compounds are tested for their ability to inhibit LTB4 release upon stimulation with calcium ionophore and the LTB4 levels in supernatants are measured by ELISA.

SMILES: O=C(O)c1ccc(CN2C[C@@H]3C[C@H]2CN3Cc2ccc(Oc3ccc(-c4ncco4)cc3)cc2)cc1 [Acebilustat, 4-{[(1S,4S)-5-({4-[4-oxazol-2-yl-phenoxy]phenyl}methyl)-2,5-diazabicyclo[2.2.1]heptan-2-yl]methyl}benzoic acid]
- SAR Distal intestinal obstruction syndrome, # of Subjects [1]: 1
- SAR Distal intestinal obstruction syndrome, Frequency [1]: 0.5%
- SAR Distal intestinal obstruction syndrome, Intensity Mild [1]: 0
- SAR Distal intestinal obstruction syndrome, Intensity Moderate [1]: 0
- SAR Distal intestinal obstruction syndrome, Intensity Severe [1]: 1
- SAR Drug Induced Liver Injury, # of Subjects [1]: 1
- SAR Drug Induced Liver Injury, Frequency [1]: 0.5%
- SAR Drug Induced Liver Injury, Intensity Mild [1]: 0
- SAR Drug Induced Liver Injury, Intensity Moderate [1]: 0
- SAR Drug Induced Liver Injury, Intensity Severe [1]: 1
- SAR Gastrointestinal disorders, # of Subjects [1]: 1
- SAR Gastrointestinal disorders, Frequency [1]: 0.5%
- SAR Gastrointestinal disorders, Intensity Mild [1]: 0
- SAR Gastrointestinal disorders, Intensity Moderate [1]: 0
- SAR Gastrointestinal disorders, Intensity Severe [1]: 1
- SAR Hepatobiliary Disorders, # of Subjects [1]: 1
- SAR Hepatobiliary Disorders, Frequency [1]: 0.5%
- SAR Hepatobiliary Disorders, Intensity Mild [1]: 0
- SAR Hepatobiliary Disorders, Intensity Moderate [1]: 0
- SAR Hepatobiliary Disorders, Intensity Severe [1]: 1
- SAR Infections and infestations, # of Subjects [1]: 1
- SAR Infections and infestations, Frequency [1]: 0.5%
- SAR Infections and infestations, Intensity Mild [1]: 0
- SAR Infections and infestations, Intensity Moderate [1]: 0
- SAR Infections and infestations, Intensity Severe [1]: 1
- SAR Infective pulmonary exacerbation of cystic fibrosis, # of Subjects [1]: 1
- SAR Infective pulmonary exacerbation of cystic fibrosis, Frequency [1]: 0.5%
- SAR Infective pulmonary exacerbation of cystic fibrosis, Intensity Mild [1]: 0
- SAR Infective pulmonary exacerbation of cystic fibrosis, Intensity Moderate [1]: 0
- SAR Infective pulmonary exacerbation of cystic fibrosis, Intensity Severe [1]: 1
- sputum neutrophils decrease ([2]; 100 mg group): 65%
- sputum white blood cells decrease from Baseline ([2]; 100 mg group): 60%
- sputum neutrophils decrease ([2]; all treated (50 to 100 mg)): 34%
- sputum white blood cells decrease from Baseline ([2]; all treated subjects (50 or 100 mg)): 31%
- tolerability ([3]; CF patients, 50 mg and 100 mg per day for 48 weeks): generally well tolerated
- serious adverse reactions (SARs) ([3]; Phase 1 studies, healthy volunteers or subjects with CF): No SARs were reported
- safety and tolerability ([3]; across six clinical studies, 5 to 200 mg): generally safe and well tolerated
- circulating neutrophil counts or sputum microbiology ([3]; clinical studies): did not alter
- headache considered to be related to Acebilustat ([3]; clinical studies): 8%
- tolerability ([3]; healthy volunteers, once-daily oral up to 200 mg/day for 14 days): well tolerated
- ophthalmologic changes ([4]; long term safety studies): no evidence for ophthalmologic changes
- dose limiting toxicity ([4]; long-term animal safety studies across species): failure to gain weight associated with reduced food consumption
- IC50 ([5]; ex vivo stimulated human whole blood): 64 nM
- IC50 ([5]; human whole blood tested ex vivo, approximate): ~0.0308 µg/mL
- IC50 (LTA4H aminopeptidase): 27 nM
- IC50 (LTA4H epoxide hydrolase): 13 nM
